From paper PMC6899576, “Structure‐Based Screening of Tetrazolylhydrazide Inhibitors versus KDM4 Histone Demethylases” (Chemmedchem, 2019)

What was measured:
KDM4A = biological target: T1, KDM4A (Homo sapiens, UniProt O75164); experiment: LANCE Ultra antibody-based demethylase assay; type: biochemical
T1 construct: catalytic domain, residues 1-359; pQTEV N-terminal His6 tag removed by TEV protease
T1 sequence (O75164 1-359): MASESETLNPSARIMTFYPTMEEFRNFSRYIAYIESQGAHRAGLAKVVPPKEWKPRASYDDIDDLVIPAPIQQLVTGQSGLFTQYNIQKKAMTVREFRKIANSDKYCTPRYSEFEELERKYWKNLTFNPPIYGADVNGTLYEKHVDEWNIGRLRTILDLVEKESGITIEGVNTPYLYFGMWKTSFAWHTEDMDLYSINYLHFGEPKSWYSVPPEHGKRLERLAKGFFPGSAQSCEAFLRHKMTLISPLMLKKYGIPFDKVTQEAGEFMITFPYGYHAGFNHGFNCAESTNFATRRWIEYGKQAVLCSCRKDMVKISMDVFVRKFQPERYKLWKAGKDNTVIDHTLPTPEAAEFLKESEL
Source text: LANCE Ultra antibody-based demethylase assay on KDM4A

KDM4D = biological target: T2, KDM4D (Homo sapiens, UniProt Q6B0I6); experiment: isothermal titration calorimetry; type: binding
T2 construct: catalytic core, residues 1-342 (11-342 visible in crystals); pQTEV N-terminal His6 tag removed by TEV protease; E. coli
T2 sequence (Q6B0I6 1-342): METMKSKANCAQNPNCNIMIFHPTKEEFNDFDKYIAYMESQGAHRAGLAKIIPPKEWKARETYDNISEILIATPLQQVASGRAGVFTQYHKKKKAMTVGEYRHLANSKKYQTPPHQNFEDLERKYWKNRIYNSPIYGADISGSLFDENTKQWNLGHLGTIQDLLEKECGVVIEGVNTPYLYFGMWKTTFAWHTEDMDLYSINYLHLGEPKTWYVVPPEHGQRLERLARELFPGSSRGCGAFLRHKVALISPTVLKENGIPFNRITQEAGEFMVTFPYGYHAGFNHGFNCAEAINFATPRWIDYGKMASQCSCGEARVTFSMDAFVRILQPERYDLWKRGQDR
Source text: isothermal titration calorimetry on KDM4D

| Structure (SMILES) | IC50 (KDM4A) [µM] | Kd (KDM4D) [µM] |
| --- | --- | --- |
| NNC(=O)c1ccc(-c2nn[nH]n2)cc1 [compound 6] | 216 ± 33 |  |
| NNC(=O)c1cccc(-c2nn[nH]n2)c1 [compound 7] | 195 ± 39 | 41 ± 15 |
| NNC(=O)Cc1nnn[nH]1 [compound 1] |  | 2.3 ± 0.9 |
